Measurements reported in patent publication US20100273701A1, “USE OF SALUSIN BETA ALONE OR IN COMBINATION WITH OCTREOTIDE AS A THERAPEUTIC AGENT” (priority 2007, published 2010).

How the values were obtained:
HIV-1III8 = format: cell-based
HCMV strain AD169 = assay: HCMV plaque formation assay in MRC-5 cells; conditions: for inhibition of HCMV plaque formation as compared to the virus control experiment: 10 micrograms per ml, 7-10 days
Streptococcus pneumoniae = conditions: 10 micrograms per ml; read visually
HUVEC = assay: Endothelial tube formation assay; format: cell-based, human; conditions: 10 micrograms per ml; 20 hours; combination peptide 1: peptide 2 1.10 mole: 0.90 mole
Description: Positive control was vehicle only. […] Raw data were expressed as average tubule […] ±standard deviation.

Human A549 cells = assay: Apoptosis prevention assay (C2 ceramide, Annexin-5); format: cell-based; conditions: 10 micrograms per ml, 30 min pretreatment, combination 0.95 mole peptide 1 and 1.05 mole peptide 2
[1] = test system: Primary Human endothelial cells (HUVEC); assay: Endothelial cell migration assay; format: cell-based; conditions: 10 micrograms per ml, 22 hours
[2] = test system: hepatitis B virus (HBV) ayw strain; assay: HBV experimental assay system, HepG2-2.2.15 cells, TaqMan PCR of secreted HBV DNA; format: cell-based; conditions: 10 micrograms per ml, six days, combination 0.95 mole peptide 1 and 1.05 mole peptide 2
murine spleen cells = assay: Th1/Th2 cytokine profiling assay; format: cell-based, Balb/c mice; conditions: 10 micrograms per ml, Ovalbumin restimulation, 72 hours; for production of IL-2 in murine spleen cells (induced / increased by): combination 0.95 mole peptide 1 and 1.05 mole peptide 2

In the case of `Cc1cn([C@H]2C[C@H](N=[N+]=[N-])[C@@H](CO)O2)c(=O)[nH]c1=O` [AZT], the “antiviral activity of positive control compounds (HIV-1)” value (HIV-1III8) was “expected levels of antiviral activity”.
For `Nc1nc(O)c2ncn(COC(CO)CO)c2n1` [Ganciclovir], the “antiviral activity of positive control compound (HCMV)” value (HCMV strain AD169; positive control) was “expected levels of antiviral activity”.
In the case of `C[C@@H](O)[C@@H]1NC(=O)[C@H](CCCCN)NC(=O)[C@@H](Cc2c[nH]c3ccccc23)NC(=O)[C@H](Cc2ccccc2)NC(=O)[C@@H](NC(=O)[C@H](N)Cc2ccccc2)CSSC[C@@H](C(=O)N[C@H](CO)[C@@H](C)O)NC1=O` [Peptide 2, D-Phe-Cys-Phe-D-Trp-Lys-Thr-Cys-L-threoninol], the “inhibition of the growth of Streptococcus pneumoniae” value (Streptococcus pneumoniae) was 100%, the “inhibition of the tube formation of human endothelial cells” value (HUVEC) was 8% and the “reduction of the ceramide-induced apoptosis on human lung cells” value (Human A549 cells) was “did not reduce”. For the same compound, the “increase of the migration of endothelial cells” value [1] was 24%, the “inhibition of HBV replication as compared to the virus control infection” value [2] was 13.4% and the “inhibition of HCMV plaque formation as compared to the virus control experiment” value (HCMV strain AD169) was 2.9%. The “change of the production of IL-4 in murine spleen cells” value (murine spleen cells) was “did not significantly change”, the “change of the production of IL-5 in murine spleen cells” value (murine spleen cells) was “did not significantly change” and the “change of the production of TNF-alpha in murine spleen cells” value (murine spleen cells) was “did not significantly change”. For the same compound, the “production of IFN-γ in murine spleen cells (decreased by)” value (murine spleen cells) was 44% and the “production of IL-2 in murine spleen cells (induced / increased by)” value (murine spleen cells) was 59.5%.
In the case of `CC(C)(C)NC(=O)[C@@H]1CN(Cc2cccnc2)CCN1C[C@@H](O)C[C@@H](Cc1ccccc1)C(=O)N[C@H]1c2ccccc2C[C@H]1O` [indinavir], the “antiviral activity of positive control compounds (HIV-1)” value (HIV-1III8) was “expected levels of antiviral activity”.
For “Ala-lle-Phe-Ile-Phe-Ile-Arg-Trp-Leu-Leu-Lys-Leu-Gly-His-His-Gly-Arg-Ala-Pro-Pro-OH [Peptide 1]”, the “inhibition of the growth of Streptococcus pneumoniae” value (Streptococcus pneumoniae) was “no inhibitory effects”, the “inhibition of the tube formation of human endothelial cells” value (HUVEC) was 23% and the “reduction of the ceramide-induced apoptosis on human lung cells” value (Human A549 cells) was 28.2%. For the same compound, the “inhibition of the migration of human endothelial cells” value ([1]; combination peptide 1: peptide 2 1.10 mole: 0.90 mole) was 19%, the “inhibition of HBV replication as compared to the virus control infection” value [2] was 44.6% and the “inhibition of HCMV plaque formation as compared to the virus control experiment” value (HCMV strain AD169) was “did not inhibit”. The “change of the production of IL-4 in murine spleen cells” value (murine spleen cells) was “did not significantly change”, the “change of the production of IL-5 in murine spleen cells” value (murine spleen cells) was “did not significantly change” and the “change of the production of TNF-alpha in murine spleen cells” value (murine spleen cells) was “did not significantly change”. For the same compound, the “production of IFN-γ in murine spleen cells (decreased by)” value (murine spleen cells) was “did not significantly change” and the “production of IL-2 in murine spleen cells (induced / increased by)” value (murine spleen cells) was 156%.
